{"source": "patent US20030082803A1", "about": "“Cell cycle control” (priority 1999, published 2003)", "key": {"mES cells": {"tested_on": "mES cells", "experiment": "Cell cycle arrest and cell cycle structure by flow cytometry of PI-stained mES cells", "assay_type": "cell-based, murine", "conditions": "up to concentrations of 140 μM", "experimental": "Cdk2 activity levels determine the rate of mES cell division but not cell cycle structure. (A) mES cells were grown for up to 8 passages in the presence (+) or absence (−) of Ro09-3033 (2 μM). Cdk2, cyclin E and cyclin B-associated H1 kinase activities were assayed as described previously after immunoprecipitation from whole cell lysates (100 μg protein). Input loading control was determined by probing immunoblots (15 μg lysate protein) with α-Cdk2 and α-Oct4 polyclonal antibodies. Quantitation of H1 kinase activities are shown in the lower panel as the average of two independent experiments. (B) Northern blot analysis of Oct4, Rex-1 and GAPDH transcripts from mES cells grown with (+) or without (−) inhibitor (2 μM) for the number of passages indicated. RNA was resolved by agarose gel electrophoresis, blotted and hybridized with [^32P]-labelled Oct4, Rex-1 and GAPDH probes (15 μg total RNA per lane). […] (C) After 8 passages in the presence (+) or absence (−) of 2 μM Ro09-3033, mES and mEPL cells were fixed and stained with PI and analysed by flow cytometry. […] Generation times of mEPL cells were not determined in this experiment.\nIn preparation for flow cytometry, cells were resuspended in 300 μl of PBS supplemented with 1% FCS. […] Cells were stained by the addition of 2.5 mg/ml propidium iodide (Sigma) and 0.5 mg/ml RNAase A and analysed on a Beckman-Coulter flow cytometer with WinMDi software."}, "[1]": {"conditions": "accumulation of cells at G1/S or G2/M, reference (31); cited from earlier work"}}}
{"molecule": "CC[C@H](CO)Nc1nc(NCc2ccccc2)c2ncn(C(C)C)c2n1", "note": "[roscovitine]", "values": [{"measurement": "Effect on cell division times or cell cycle structure in mES cells", "setting": "mES cells", "value": "no effect"}, {"measurement": "Concentration range in which it typically acts as a cell cycle specific inhibitor", "setting": "[1]", "value": "20 to 30", "unit": "µM"}]}
